Assay results reported in patent publication US20100298141A1, “SUBSTITUTED PYRIDINE N-OXIDE HERBICIDES” (E. I. DU PONT DE NEMOURS AND COMPANY, priority 2007, published 2010).

Columns and labels:
corn [1] = assay: Test A pre-/postemergence greenhouse test; format: in vivo, Zea mays; settings: for Corn plant response rating: 0 to 100 scale
Method in brief: (§1)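 Each test compound, dissolved in a non-phytotoxic solvent mixture with surfactant, was sprayed directly onto seeded soil (loam/sand blend) and, at the same moment, onto seedlings carrying one to two leaves. Around ten greenhouse days later, plants were rated visually for injury relative to untreated controls.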

green foxtail = assay: Test C pre-/postemergence test; format: in vivo, Setaria viridis; settings: Preemergence
Method in brief: (§2)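 Compounds in a non-phytotoxic solvent with surfactant applied preemergence to seeded pots and, at the same time, postemergence to plants 2–18 cm tall (1- to 4-leaf stage). Paddy tests: pots flooded to 3 cm, compound applied into the water, depth held throughout.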

velvetleaf = assay: Test A pre-/postemergence greenhouse test; format: in vivo, Abutilon theophrasti; settings: for Velvetleaf plant response rating: 0 to 100 scale
Method in brief: as §1

yellow nutsedge = assay: Test C pre-/postemergence test; format: in vivo, Cyperus esculentus; settings: Preemergence
Method in brief: as §2

pigweed = assay: Test C pre-/postemergence test; format: in vivo, Amaranthus retroflexus; settings: Preemergence
Method in brief: as §2

barnyardgrass [2] = assay: Test A pre-/postemergence greenhouse test; format: in vivo, Echinochloa crus-galli; settings: for Barnyardgrass plant response rating: 0 to 100 scale
Method in brief: as §1

bermudagrass = assay: Test C pre-/postemergence test; format: in vivo, Cynodon dactylon
Method in brief: as §2

barnyardgrass [3] = assay: Test C flooded paddy test; format: in vivo, Echinochloa crus-galli; settings: Flood
Method in brief: (§3)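 Ratings were visual and made relative to untreated controls after 13 to 15 greenhouse days.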

Goosegrass = assay: Test C pre-/postemergence test; format: in vivo, Eleusin indica; settings: Preemergence
Method in brief: as §2

duck salad = assay: Test C flooded paddy test; format: in vivo, Heteranthera limosa; settings: Flood
Method in brief: as §3

Italian ryegrass = assay: Test C pre-/postemergence test; format: in vivo, Lolium multiflorum; settings: Preemergence
Method in brief: as §2

crabgrass [4] = assay: Test C pre-/postemergence test; format: in vivo, Digitaria sanguinalis; settings: Preemergence
Method in brief: as §2

soybean = assay: Test C pre-/postemergence test; format: in vivo, Glycine max; settings: Preemergence
Method in brief: as §2

umbrella sedge = assay: Test C flooded paddy test; format: in vivo, Cyperus difformis; settings: Flood
Method in brief: as §3

corn [5] = assay: Test C pre-/postemergence test; format: in vivo, Zea mays
Method in brief: as §2

johnsongrass = assay: Test C pre-/postemergence test; format: in vivo, Sorghum halepense; settings: Preemergence
Method in brief: as §2

crabgrass [6] = assay: Test A pre-/postemergence greenhouse test; format: in vivo, Digitaria sanguinalis; settings: for Crabgrass, Large plant response rating: 0 to 100 scale
Method in brief: as §1

[7] = Postemergence, 125 g ai/ha, 0 is no effect, 100 is complete control
[8] = Postemergence, 500 g ai/ha, 0 is no effect, 100 is complete control
[9] = Preemergence, 125 g ai/ha, 0 no effect, 100 complete control
[10] = Preemergence, 500 g ai/ha, 0 to 100 scale where 0 is no effect and 100 is complete control
[11] = 31 g ai/ha, scale 0 to 100 (0 no effect, 100 complete control)
[12] = Preemergence, 31 g ai/ha, scale 0 to 100 (0 no effect, 100 complete control)
[13] = preemergence, 125 g ai/ha, scale 0 (no effect) to 100 (complete control)
[14] = 62 g ai/ha, scale 0 to 100, 0 no effect, 100 complete control, 13 to 15 days
[15] = 125 g ai/ha, scale 0 to 100, 0 no effect, 100 complete control, 13 to 15 days
[16] = 250 g ai/ha, scale 0 to 100 (0 no effect, 100 complete control)

Cn1nc(C(F)(F)F)c(CS(=O)(=O)c2ccc(Cl)c[n+]2[O-])c1Cl [Compound 18]
Corn plant response rating (corn [1]; [7]): 0 | Corn plant response rating (corn [1]; [8]): 50 | Corn plant response rating (corn [1]; [9]): 0 | Plant response rating, Corn (corn [1]; [10]): 0 | Plant response rating, Foxtail, Green (green foxtail; [11]): 20 | Plant response rating (0 to 100), Foxtail, Green (green foxtail; 250 g ai/ha): 100 | Velvetleaf plant response rating (velvetleaf; [7]): 0 | Velvetleaf plant response rating (velvetleaf; [8]): 40 | Velvetleaf plant response rating (velvetleaf; [9]): 0 | Plant response rating, Velvetleaf (velvetleaf; [10]): 40 | Nutsedge, Yellow plant response rating (yellow nutsedge; 62 g ai/ha, scale 0 to 100): 0 | Plant response rating, Nutsedge, Yellow (yellow nutsedge; [11]): 0 | Pigweed plant response rating (pigweed; 62 g ai/ha, scale 0 to 100): 100 | Plant response rating, Pigweed (pigweed; [11]): 100 | Barnyardgrass plant response rating (barnyardgrass [2]; [7]): 60 | Barnyardgrass plant response rating (barnyardgrass [2]; [8]): 80 | Barnyardgrass plant response rating (barnyardgrass [2]; [9]): 90 | Plant response rating, Barnyardgrass (barnyardgrass [2]; [10]): 100 | Bermudagrass plant response rating (bermudagrass; 62 g ai/ha, Preemergence, scale 0 to 100 (0 no effect, 100 complete control)): 100 | Plant response rating, Bermudagrass (bermudagrass; [12]): 90 | Plant response rating (0 to 100), Bermudagrass (bermudagrass; Preemergence, 250 g ai/ha): 100 | Bermudagrass plant response rating (bermudagrass; [13]): 100 | Plant response rating, Barnyardgrass (barnyardgrass [3]; [11]): 0 | Plant response rating, Barnyardgrass (barnyardgrass [3]; [14]): 30 | Plant response rating, Barnyardgrass (barnyardgrass [3]; [15]): 75 | Plant response rating, Barnyardgrass (barnyardgrass [3]; [16]): 85 | Goosegrass plant response rating (Goosegrass; 62 g ai/ha, scale 0 to 100): 100 | Plant response rating, Goosegrass (Goosegrass; [11]): 90 | Plant response rating (0 to 100), Goosegrass (Goosegrass; 250 g ai/ha): 100 | Plant response rating, Ducksalad (duck salad; [11]): 0 | Plant response rating, Ducksalad (duck salad; [14]): 0 | Plant response rating, Ducksalad (duck salad; [15]): 80 | Plant response rating, Ducksalad (duck salad; [16]): 80 | Ryegrass, Italian plant response rating (Italian ryegrass; 62 g ai/ha, scale 0 to 100): 0 | Plant response rating, Ryegrass, Italian (Italian ryegrass; [11]): 0 | Crabgrass, Large plant response rating (crabgrass [4]; 62 g ai/ha, scale 0 to 100): 100 | Plant response rating, Crabgrass, Large (crabgrass [4]; [11]): 80 | Plant response rating (0 to 100), Crabgrass, Large (crabgrass [4]; 250 g ai/ha): 100 | Soybean plant response rating (soybean; 62 g ai/ha, scale 0 to 100): 0 | Plant response rating, Soybean (soybean; [11]): 0 | Plant response rating, Sedge, Umbrella (umbrella sedge; [11]): 0 | Plant response rating, Sedge, Umbrella (umbrella sedge; [14]): 0 | Plant response rating, Sedge, Umbrella (umbrella sedge; [15]): 80 | Plant response rating, Sedge, Umbrella (umbrella sedge; 250 g ai/ha, scale 0 to 100, 0 no effect, 100 complete control, 13 to 15 days): 85 | Corn plant response rating (corn [5]; 62 g ai/ha, Preemergence, scale 0 to 100): 0 | Plant response rating, Corn (corn [5]; [12]): 0 | Plant response rating (0 to 100), Corn (corn [5]; Preemergence, 250 g ai/ha): 15 | Corn plant response rating (corn [5]; [13]): 0 | Johnsongrass plant response rating (johnsongrass; 62 g ai/ha, scale 0 to 100): 100 | Plant response rating, Johnsongrass (johnsongrass; [11]): 5 | Plant response rating (0 to 100), Johnsongrass (johnsongrass; 250 g ai/ha): 100 | Crabgrass, Large plant response rating (crabgrass [6]; [7]): 60 | Crabgrass, Large plant response rating (crabgrass [6]; [8]): 80 | Crabgrass, Large plant response rating (crabgrass [6]; [9]): 80 | Plant response rating, Crabgrass, Large (crabgrass [6]; [10]): 90
